In patent US20080085889A1, “Amidomethyl-Substituted 1-(Carboxyalkyl) Cyclopentyl-Carbonylamino-Benzazepine-N-Acetic Acid Compounds, Process and Intermediate Products for Their Preparation and Pharmaceutical Compositions Containing Them” (SOLVAY PHARMACEUTICALS GmbH, priority 2003, published 2008):

Legend:
[1] = target: T1, hSEP (sol hu)(his)6; His6-tagged hSEP ectodomain (Homo sapiens, UniProt Q495T6); experiment: Enzymatic breakdown of CNP and VIP by hSEP and its inhibition, in vitro, HPLC; type: biochemical; details: no inhibitor, 37° C.
T1 construct: His6-tagged hSEP ectodomain; His6; purchased Innogenetics, Ghent, Belgium
T1 sequence (Q495T6 49-779 limits assumed): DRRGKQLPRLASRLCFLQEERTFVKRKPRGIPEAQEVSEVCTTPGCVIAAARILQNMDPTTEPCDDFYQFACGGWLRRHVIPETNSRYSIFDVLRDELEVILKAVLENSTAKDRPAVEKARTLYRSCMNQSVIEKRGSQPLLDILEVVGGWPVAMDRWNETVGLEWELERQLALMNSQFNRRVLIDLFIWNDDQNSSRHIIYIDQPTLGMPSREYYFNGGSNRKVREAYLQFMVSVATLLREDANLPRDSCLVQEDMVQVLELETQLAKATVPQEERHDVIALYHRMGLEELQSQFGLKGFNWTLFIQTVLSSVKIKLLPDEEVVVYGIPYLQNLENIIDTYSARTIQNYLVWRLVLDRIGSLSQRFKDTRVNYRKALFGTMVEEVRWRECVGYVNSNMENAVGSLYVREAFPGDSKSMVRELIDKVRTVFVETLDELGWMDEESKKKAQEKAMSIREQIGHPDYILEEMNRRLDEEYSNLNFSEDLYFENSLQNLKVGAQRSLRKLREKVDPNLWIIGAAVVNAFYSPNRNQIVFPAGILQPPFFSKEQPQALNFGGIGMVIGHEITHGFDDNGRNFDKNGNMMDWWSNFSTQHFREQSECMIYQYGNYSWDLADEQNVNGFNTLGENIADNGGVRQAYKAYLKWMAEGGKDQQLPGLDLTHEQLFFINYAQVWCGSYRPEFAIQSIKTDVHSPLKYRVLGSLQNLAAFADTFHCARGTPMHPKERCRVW
Experimental: The inhibition of the enzymatic breakdown of CNP and VIP by the compounds used according to the invention was measured in an enzymatic in vitro assay according to the following protocol:
All test compounds were dissolved in DMSO at 10 mM and further diluted with assay buffer.
80 μl of assay buffer, 10 μl of enzyme working solution (NEP or hSEP) and 10 μl of peptide stock solution (VIP or CNP) were mixed in an Eppendorf vial and incubated for 120 min. at 37° C. The enzymatic reaction was subsequently terminated by heating to 95° C. for 5 min. After centrifugation (Heraeus Biofuge B, 3 min) the supernatant was subjected to HPLC.
70 μl of assay buffer, 10 μl of enzyme working solution (NEP or hSEP) and 10 μl of a test compound solution were mixed in an Eppendorf vial and preincubated at 37° C. for 15 minutes. Then, 10 μl of peptide stock solution (VIP or CNP) was added and the reaction mixture was incubated at 37° C. for 60 min. to allow enzymatic hydrolysis. The enzymatic reaction was subsequently terminated by heating to 95° C. for 5 min. After centrifugation (Heraeus Biofuge B, 3 min) the supernatant was subjected to HPLC. In order to separate the remaining substrate from the cleavage products, a reversed phase HPLC technique with a CC 125/4 Nucleosil 300/5 C18 RP column and a CC 8/4 Nucleosil 100/5 C18 precolumn (Macherey-Nagel, Düren, Germany) was used. 60 μl of the reaction samples were injected into the HPLC and the column was eluted at a flow rate of 1 ml/min with the following gradient:
All peptides were detected by absorbance at 214 nm (UV spectroscopy). The percentage (=%) of hydrolysis was calculated on the basis of the peak area of the undegraded peptide for an enzyme containing sample Y in correlation to a sample containing the same concentration of peptide without enzyme (blank) by the following equation: % hydrolysis=100*(blank−Y)
Basis of the calculation of % inhibition is the peak area of the undegraded peptide (VIP or CNP) for an inhibitor containing sample X in comparison to samples containing only peptide (blank) or peptide and enzyme without inhibitor (control) according to the following equation: % inhib=100*(X−control)/(blank−control)
All samples were run in duplicate and mean values were used. A solvent control (0.1% DMSO) was added to each assay run. CNP and VIP were cleaved by NEP and hSEP in vitro.

[2] = target: T2, His6-tagged hSEP ectodomain (Homo sapiens, UniProt Q495T6); experiment: In vitro investigation of the hSEP-inhibitory action (fluorescence-quenched Big-ET-1 analogue, HPLC); type: biochemical
T2 construct: His6-tagged hSEP ectodomain; His6; purchased Innogenetics, Ghent, Belgium
T2 sequence (Q495T6 49-779 limits assumed): T1 sequence (Q495T6 49-779 limits assumed)
In short: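 Performed as for the NEP assay, with HPLC analysis and 10 nM phosphoramidon as the standard inhibitor. IC50 is the compound concentration blocking 50% of hSEP enzymatic activity.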

[3] = system: maximal SAP response to Big-ET; experiment: In vivo inhibition of maximal SAP response to Big-ET in anesthetized rats after oral administration; design: species or system Rats (Sprague-Dawley); details: oral by gavage, 100 μmol/kg, 1 h before Big-ET challenge; mean ± standard error; negative = inhibition
Experimental: Rats (Sprague-Dawley, CRLD=Charles River) were anaesthetised with 1 ml/kg Rompun/Ketavet 1:1. A pressure transducer (Statham) was inserted into the carotid artery to measure blood pressure.
For oral testing, the substances (or vehicle) were given by gavage at doses of 100 μmol/kg each, 1 h before the Big-ET challenge, and blood pressure and heart rate were monitored as described above.
The inhibition of maximal SAP response to Big-ET in anesthetized rats following oral administration of the test substances of Formula I is set forth in the following Table 3c: […]
Data given in table 3c as negative values indicate an inhibitory effect. Values are means from 3-6 independent series of experiments ±standard error.

[4] = target: T3, soluble, human recombinant NEP (Homo sapiens, UniProt P08473); experiment: In-vitro investigation of the NEP inhibitory action (fluorescence-quenched Big-ET-1 analogue, HPLC); type: biochemical
T3 construct: soluble, human recombinant NEP; purchased Prof; Crine, University of Montreal, Canada
In short: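 Enzyme preincubated with test substance 15 min at 37° C, then incubated with fluorescence-quenched Mca peptide substrate 60 min at 37° C and stopped by heating to 95° C. Cleaved and intact peptide separated by reversed-phase HPLC; unquenched Mca peak area (ex 328/em 393 nm) gave % inhibition versus no-compound control, duplicates, IC50 derived.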

[5] = Plasma protein binding, equilibrium dialysis, rat plasma; type: in vitro ADME; details: rat plasma (10% for routine testing), 37° C., pH 7.4, 10% plasma (100% for low binders), read-out: % bound (rat plasma) (converted)
Experimental: (§1) Plasma protein binding of the test substances of Formula I was measured using a validated equilibrium dialysis method. The dialysis cells consisted of two halves separated by a semi-permeable membrane slightly tensioned in between. […] Before being used, the membranes were re-hydrated by soaking in water followed by the dialysis buffer. Plasma (10% for routine testing, and 100% for compounds found to have a low protein binding) was heated to 37° C. and adjusted to pH 7.4 before use. 5 μM test compound solutions (final dimethylsulfoxide concentration 0.5%) were prepared in isotonic phosphate buffer containing rat or human plasma. The plasma-containing solution was on one side of the membrane, and the plasma-free on the other. Incubations were performed overnight (10% plasma assay), or for 2 hours (100% plasma assay) in triplicate. The cells were mounted in a drive unit that rotated the cells and ensured a uniform equilibrium was obtained. The equilibrium was temperature controlled by the drive unit being immersed in a water bath at 37° C. At the end of the equilibration time, the cells were emptied. The solutions for each batch of compounds were combined into two groups (plasma-free and plasma-containing) then cassette analysed by LC-MS/MS using two sets of calibration standards for plasma-free (7 points) and plasma-containing solutions (6 points). The percentage of protein bound compound was calculated as follows: [formula] PC=sample concentration in protein containing side; PF=sample concentration in protein free side;

[6] = Plasma protein binding, equilibrium dialysis, human plasma; type: in vitro ADME; details: human plasma (10% for routine testing), 37° C., pH 7.4, 10% plasma (100% for low binders), read-out: % bound (human plasma) (converted)
Experimental: as §1

T3 sequence (P08473 52-750 limits assumed): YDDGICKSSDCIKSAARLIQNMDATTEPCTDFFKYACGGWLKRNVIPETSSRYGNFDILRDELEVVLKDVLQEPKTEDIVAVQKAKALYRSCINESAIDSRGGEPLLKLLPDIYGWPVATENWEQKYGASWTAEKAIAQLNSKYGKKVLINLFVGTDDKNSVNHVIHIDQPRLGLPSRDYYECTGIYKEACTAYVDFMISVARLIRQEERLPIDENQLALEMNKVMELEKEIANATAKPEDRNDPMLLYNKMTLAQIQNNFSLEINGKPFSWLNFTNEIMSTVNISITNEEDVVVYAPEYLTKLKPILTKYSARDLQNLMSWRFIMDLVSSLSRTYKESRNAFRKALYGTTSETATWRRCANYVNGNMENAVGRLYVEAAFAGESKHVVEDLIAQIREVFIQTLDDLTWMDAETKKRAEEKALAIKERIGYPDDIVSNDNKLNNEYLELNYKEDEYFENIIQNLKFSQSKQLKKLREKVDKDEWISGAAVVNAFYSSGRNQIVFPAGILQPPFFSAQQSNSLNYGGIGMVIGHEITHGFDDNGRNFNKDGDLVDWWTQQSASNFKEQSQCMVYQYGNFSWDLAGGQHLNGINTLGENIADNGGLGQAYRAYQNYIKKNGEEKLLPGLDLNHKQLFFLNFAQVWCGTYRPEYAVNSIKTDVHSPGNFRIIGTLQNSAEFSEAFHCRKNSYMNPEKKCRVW

With “CNP: c-type natriuretic peptide, CNP (32-53), substrate of NEP and hSEP; supplier Bachem [reference compound]” the “breakdown of CNP by hSEP, degradation at t = 2 h” value [1] was 46%.

With `CCN(CCCN)C(=O)CC(CC1(C(=O)NC2CCc3ccccc3N(CC(=O)O)C2=O)CCCC1)C(=O)O` (stereo not shown) [Example 80, 4-[(3-aminopropyl)(ethyl)amino]-2-{[1-({[1-(carboxymethyl)-2-oxo-2,3,4,5-tetrahydro-1H-1-benzazepin-3-yl]amino}carbonyl)cyclopentyl]methyl}-4-oxobutanoic acid] the IC50 [2] was 3 nM, the “% substance-related inhibition of the maximum Big-ET effect on SAP vs. control” value [3] was −43 ± 5% and the IC50 [4] was 16 nM. For the same compound, the fraction unbound at 5 μM [5] was 0.73 and the fraction unbound at 5 μM [6] was 0.66.

With “VIP: vasoactive intestinal peptide, substrate of NEP and hSEP; supplier Bachem [reference compound]” the “breakdown of VIP by hSEP, degradation at t = 2 h” value [1] was 36%.
